Measurements as given in the METLIN SMRT retention time set (Domingo-Almenara et al. 2019).

Test: gradient 5% acetonitrile 3 min, to 50% in 2 min, to 85% in 15 min, held 3 min, 100 µL/min
Conditions: column: Zorbax Extend-C18 2.1 x 50 mm; eluents: water / acetonitrile, 0.1% formic acid
In short: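 In both positive and negative ionization mode, a quadrupole time-of-flight mass spectrometer coupled to HPLC analyzed pure standards run in mixtures of ~100 molecules. The Zorbax Extend-C18 column (2.1 × 50 mm, 1.8 μm) was operated at 100 μL/min with water and acetonitrile, each containing 0.1% formic acid. The dead volume was 40 μL and the dwell volume 900 μL. Retention time came from adduct peaks that were computationally picked and individually inspected by hand.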

Point of comparison: `Cc1nnc2ccc(S(=O)(=O)Nc3ccc(F)c(F)c3)cn12`, RP-LC retention time 692 s. Against it:
- CC(C)n1c(CC2CCN(C(=O)Nc3ccccc3Cl)C2)nc2cccnc21 (stereo unspecified) — lower, 648 s
- Cc1ccccc1-c1noc(C2CCCN2S(=O)(=O)c2ccc(C(C)C)cc2)n1 (stereo unspecified) — higher, 1340 s
- COc1ccc(NC(=O)C2CCN(C(=O)c3ncn4c3COC(c3ccc(OC)cc3)C4)CC2)cc1 (stereo unspecified) — higher, 760 s
- O=C(Nc1ccc2sccc2c1)c1coc2ccccc2c1=O — higher, 1070 s
- CCOc1ccccc1-c1noc(-c2nnn3c2COC(c2cccc(OC)c2)C3)n1 (stereo unspecified) — higher, 1080 s
- CC(=O)Nc1ccc(OCC(=O)NCc2cc(F)ccc2F)nc1 — lower, 681 s
- CCC1Oc2ccc(S(=O)(=O)N3CCC(C(=O)Nc4cccc(C)c4)CC3)cc2NC1=O (stereo unspecified) — higher, 814 s
- Cc1cc(C)n(-c2c(C)c(C)nc3c(-c4ccccc4)cnn23)n1 — higher, 947 s
- Cc1cccc(C)c1NC(=O)Cn1ncc2c(c1=O)N(C1CC1)C(=O)CS2 — higher, 714 s
- Cc1ccc(-c2cc(-c3nc4c5ccccc5ncn4n3)[nH]n2)c(C)c1 — higher, 900 s
- O=S(=O)(Nc1ccc(F)cc1)c1ccccc1-c1nc(-c2ccccc2)no1 — higher, 1140 s
- CCn1c(=O)c(N2CCC(NC(=O)NCc3ccccc3)CC2)nc2ccccc21 — higher, 838 s
- Cc1cc(C)cc(Oc2nccn3c(=O)n(CC(=O)Nc4ccccc4C)nc23)c1 — higher, 838 s
- CCN1C(=O)c2ccccc2Oc2ccc(C(=O)N3CCC4(CC3)OCCO4)cc21 — higher, 770 s
- COc1ccc(C2=Nc3ccccc3N(CC(=O)Nc3ccc4c(c3)OCO4)C(=O)C2)cc1 — higher, 895 s
- Cc1cccc(Oc2nccnc2N2CCC(C(=O)NC(C)c3ccc(C)cc3C)CC2)c1 (stereo unspecified) — higher, 1150 s
- Cc1ccc(CN2CCCN(c3ncccc3-c3nc(C(C)C)no3)CC2)cc1 — higher, 746 s
- Cc1ccc(CNC(=O)C2CCN(C(=O)C3Sc4ccccc4NC3=O)CC2)cc1 (stereo unspecified) — higher, 818 s
- Cc1ccc(NC(=O)C2CCCN(c3nccnc3Sc3ccc(C)cc3)C2)cc1 (stereo unspecified) — higher, 1200 s
- Cc1cc(Cl)ccc1NS(=O)(=O)c1cc(-c2[nH]ncc2C(=O)N2CCCC2)oc1C — higher, 772 s
- O=C(CN1CCCCC1c1nc(-c2cccc(F)c2)no1)NCc1cccs1 (stereo unspecified) — higher, 1060 s
- Cc1cnc(C2CCC2)n1C1CCN(C(=O)C2(c3ccccc3)CC2)CC1 — lower, 663 s
- O=C(c1cn2c(n1)COCC2)N1CCN(c2cccc(Cl)c2)CC1 — higher, 708 s
- CCCS(=O)(=O)c1nc2ccc(NS(=O)(=O)c3ccccc3)cc2s1 — higher, 879 s
- Cc1cc2nn(CC(=O)Nc3ccc(Br)cc3F)c(=O)n2c(-c2ccc(F)cc2)n1 — higher, 952 s
- CN1CCN(C(=O)C2CCN(c3nc4ccc(-c5ccc(F)cc5)nc4s3)CC2)CC1 — lower, 674 s
- CCc1nc(-c2csc(S(=O)(=O)N3CCCC(C(=O)Nc4ccc(F)cc4F)C3)c2)no1 (stereo unspecified) — higher, 1060 s
- Cc1ccc(CN2C(=O)CC(N3CCCCC3)C2=O)cc1 (stereo unspecified) — lower, 580 s
- COc1cc(Cl)c(C)cc1NC(=O)C1CCCN(c2nc3ccccc3nc2OC)C1 (stereo unspecified) — higher, 1380 s
- Cc1nc(CCNC(=O)[C@H]2CCCN2C(=O)c2ccccc2Cl)cs1 — lower, 659 s
- O=C(NCc1ccc(F)cc1F)c1cnn2c(-c3ccc4c(c3)OCO4)ccnc12 — higher, 1000 s
- Cc1ccc(-c2nnc(-c3ccc(Cl)c(S(=O)(=O)N4CCOCC4)c3)o2)cc1 — higher, 1030 s
- CNc1nc(Nc2ccc(F)cc2C)nc2ccccc12 — lower, 678 s
- Cc1cc(OCCCCOc2ccc(C#N)cc2)ccc1[N+](=O)[O-] — higher, 1250 s
- COc1ccccc1NC(=O)N1CCC(CNC(=O)c2ccc(Br)o2)CC1 — higher, 744 s
- COCCCNC(=O)NCc1cccnc1OC — lower, 594 s
- Cc1cc(C(=O)Nc2ccc(S(C)(=O)=O)cc2)on1 — lower, 625 s
- Cn1nc(CNC(=O)c2cccc(Cl)c2)c2ccccc21 — higher, 938 s
- CCOC(=O)C1CCCN(Cc2nc3nc(C)cc(N4CCCCCC4)n3n2)C1 (stereo unspecified) — lower, 620 s
- Cc1cccc(S(=O)(=O)N2CCc3c(c(CN4CCCC4)nn3C)C2)c1 — higher, 810 s
- Cc1ccc(-n2c(=O)c3c(cc(C)n3C)n(CC(=O)Nc3cc(C)ccc3C)c2=O)cc1 — higher, 906 s
- CCc1ccc(S(=O)(=O)c2cnc(N3CCN(c4cccc(Cl)c4)CC3)nc2N)cc1 — higher, 1270 s
- CCC(C)NC(=O)c1ccn[nH]1 (stereo unspecified) — lower, 593 s
- Cc1ccc(NC(=O)N2CCCC(Cn3c(C4CC4)nc4cccnc43)C2)cc1C (stereo unspecified) — higher, 694 s
- Cc1nnc(C2CCCN(C(=O)c3nc4ccccc4s3)C2)s1 (stereo unspecified) — higher, 736 s
- Cc1ccc2ncn(C3CCN(S(=O)(=O)c4cc(C)c(C)cc4C)CC3)c(=O)c2c1 — higher, 1050 s
- Cc1cc(-n2c(C)nc3ccccc3c2=O)ccc1NC(=O)Cc1cccs1 — higher, 769 s
- Cc1ccc(Nc2nc(-c3ccc(C(C)C)cc3)cs2)nc1 — higher, 1130 s
- CCOc1ccc(-c2ccc(N3CCN(C(=O)Cc4noc5ccccc45)CC3)nn2)cc1 — lower, 672 s
- COc1ccc(-n2ccn3cc(-c4ccc(OC)c(OC)c4)nc3c2=O)cc1 — higher, 723 s
- COc1ccc(Cl)cc1NC(=O)N1CCC(COCc2ccccc2)CC1 — higher, 1120 s
- CCOC(=O)c1ccc(NC(=O)c2csc(-c3cn(C)c4ncccc34)n2)cc1 — higher, 826 s
- Cc1nnc2n1CCC(N(C)C(=O)c1cc(C3CC3)[nH]n1)CC2 (stereo unspecified) — lower, 530 s
- COc1ccc(/C=C/c2ccc3c(c2)OCCO3)cc1O — higher, 868 s
- Cc1ccc(Cn2c(=O)n(CCNC(=O)c3cccs3)c3ncccc32)cc1 — higher, 808 s
- CC(NC(=O)Cn1c(=O)n(-c2ccc(F)cc2)c2ncccc21)c1ccccn1 (stereo unspecified) — lower, 627 s
- O=C(Cn1ccn2nc(-c3ccccc3)c(CO)c2c1=O)Nc1ccc2c(c1)CCC2 — higher, 906 s
- CCCCNC(=O)CC1CCN(C(=O)c2[nH]c(C)c(C)c2C)CC1 — higher, 764 s
- CCCn1cc(C2=CCN(S(=O)(=O)Cc3cccc(Cl)c3)CC2)c2cccnc21 — higher, 1110 s
- Cc1ccc(N2CCC(NC(=O)c3ccc(C#N)cc3)C2=O)cc1C (stereo unspecified) — higher, 854 s
- COc1ccc(-c2noc(Cc3nc(-c4ccc(Br)cc4)cs3)n2)c(OC)c1 — higher, 1180 s
- O=C(C1CCN(c2cnc(N3CCCC3)nc2)CC1)N1CCCCC1 — lower, 616 s
- Cc1cc(OC(=O)c2cc3ccccc3o2)c([N+](=O)[O-])c(=O)[nH]1 — higher, 1160 s
- COCCCNC(=O)N1CCCC(C)(C(=O)NCc2ccc(C)cc2)C1 (stereo unspecified) — higher, 720 s
- CCN1C(=O)C(CC(=O)NCC2CCCCC2)Sc2ncccc21 (stereo unspecified) — higher, 808 s
